Among the data in PubChem BioAssay (NCI) are TGI values, retold here.

Structures are written as SMILES.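 Five concentrations, 48 hours, 96-well plates. TGI: total growth inhibition.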 Some results are limits rather than exact numbers.

The test system of one test is HCT-15 colon. Briefly: NCI tumour cell line growth inhibition, 48 h.
In the case of `CCOC(=O)c1csc(NC(=O)CCN(CC)CC)n1`, the TGI worked out at 75.3 µM.
For `CCN1c2ccccc2-n2c(C)nnc2-c2c1n[nH]c2-c1ccccc1`, the TGI was more than 100 µM.
`C[C@]12CC[C@@H]3c4ccc(O)cc4CC[C@H]3[C@@H]1C/C(=C\c1ccncc1)C2=O` displayed a TGI of more than 100 µM.
On the same count and under the same terms, for `C=CCN1C(=O)/C(=C/c2ccccc2)N=C1SC1OC(COC(=O)c2ccccc2)C(OC(=O)c2ccccc2)C1OC(=O)c1ccccc1` (stereo not given) the value was more than 100 µM; for `C#CCCCCC#Cc1ccccc1C(=O)OC`, more than 100 µM.
The same measure, in the same setting: for `C/C(CCOC1CCCCO1)=C(\C)[Si](C)(C)C` (stereo not given) the value was more than 100 µM; for `COCCOCOc1ccc(OCc2ccccc2)cc1`, more than 100 µM.
With `C=C(C(=O)C(=O)Oc1ccc(Cl)cc1)C(=O)c1ccc(C)cc1`, the TGI was more than 100 µM.

In the next test the test system is SK-MEL-28 melanoma. Briefly: NCI tumour cell line growth inhibition, 48 h.
In turn, `COC(=O)C1C(C(=O)OC)N(Cc2ccccc2)C(=O)N1Cc1ccccc1` (stereo not given) registered a TGI of more than 100 µM.
Still for that read-out and setting: for `CCOC(=O)c1csc(NC(=O)CCN(CC)CC)n1` the value was 62 µM; for `CCN1c2ccccc2-n2c(C)nnc2-c2c1n[nH]c2-c1ccccc1`, more than 100 µM.
Regarding `C[C@]12CC[C@@H]3c4ccc(O)cc4CC[C@H]3[C@@H]1C/C(=C\c1ccncc1)C2=O`, the TGI was more than 100 µM.
The compound `C=CCN1C(=O)/C(=C/c2ccccc2)N=C1SC1OC(COC(=O)c2ccccc2)C(OC(=O)c2ccccc2)C1OC(=O)c1ccccc1` (stereo not given) displayed a TGI of more than 100 µM.
Still for that read-out and setting: the figure for `C#CCCCCC#Cc1ccccc1C(=O)OC` is more than 100 µM; for `C/C(CCOC1CCCCO1)=C(\C)[Si](C)(C)C` (stereo not given) it is more than 100 µM; for `COCCOCOc1ccc(OCc2ccccc2)cc1` it is more than 100 µM.
`C=C(C(=O)C(=O)Oc1ccc(Cl)cc1)C(=O)c1ccc(C)cc1` showed a TGI of more than 100 µM.

The next test has as its system OVCAR-5 ovarian. The experiment in a line: NCI tumour cell line growth inhibition, 48 h.
`COC(=O)C1C(C(=O)OC)N(Cc2ccccc2)C(=O)N1Cc1ccccc1` (stereo not given) displayed a TGI of more than 100 µM.
As for `CCOC(=O)c1csc(NC(=O)CCN(CC)CC)n1`, the TGI was more than 100 µM.
Same read-out and setting: the figure for `CCN1c2ccccc2-n2c(C)nnc2-c2c1n[nH]c2-c1ccccc1` is more than 100 µM; for `C[C@]12CC[C@@H]3c4ccc(O)cc4CC[C@H]3[C@@H]1C/C(=C\c1ccncc1)C2=O` it is more than 100 µM; for `C=CCN1C(=O)/C(=C/c2ccccc2)N=C1SC1OC(COC(=O)c2ccccc2)C(OC(=O)c2ccccc2)C1OC(=O)c1ccccc1` (stereo not given) it is more than 100 µM.
In turn, `C#CCCCCC#Cc1ccccc1C(=O)OC` yielded a TGI of more than 100 µM.
Still for that read-out and setting: the figure for `C/C(CCOC1CCCCO1)=C(\C)[Si](C)(C)C` (stereo not given) is more than 100 µM; for `COCCOCOc1ccc(OCc2ccccc2)cc1` it is more than 100 µM; for `C=C(C(=O)C(=O)Oc1ccc(Cl)cc1)C(=O)c1ccc(C)cc1` it is more than 100 µM.

In another test the test system is SF-295 CNS. The experiment in a line: NCI tumour cell line growth inhibition, 48 h.
`COC(=O)C1C(C(=O)OC)N(Cc2ccccc2)C(=O)N1Cc1ccccc1` (stereo not given) gave a TGI of more than 100 µM.
In turn, `CCOC(=O)c1csc(NC(=O)CCN(CC)CC)n1` displayed a TGI of more than 100 µM.
For `CCN1c2ccccc2-n2c(C)nnc2-c2c1n[nH]c2-c1ccccc1`, the TGI is more than 100 µM.
Same read-out and setting: for `C[C@]12CC[C@@H]3c4ccc(O)cc4CC[C@H]3[C@@H]1C/C(=C\c1ccncc1)C2=O` the value was more than 100 µM.
Still for that read-out and setting: the figure for `C=CCN1C(=O)/C(=C/c2ccccc2)N=C1SC1OC(COC(=O)c2ccccc2)C(OC(=O)c2ccccc2)C1OC(=O)c1ccccc1` (stereo not given) is more than 100 µM; for `C#CCCCCC#Cc1ccccc1C(=O)OC` it is more than 100 µM; for `C/C(CCOC1CCCCO1)=C(\C)[Si](C)(C)C` (stereo not given) it is more than 100 µM.
On the same count and under the same terms, the figure for `COCCOCOc1ccc(OCc2ccccc2)cc1` is more than 100 µM; for `C=C(C(=O)C(=O)Oc1ccc(Cl)cc1)C(=O)c1ccc(C)cc1` it is more than 100 µM.

In another test the test system is MALME-3M melanoma. The experiment in a line: NCI tumour cell line growth inhibition, 48 h.
As to `COC(=O)C1C(C(=O)OC)N(Cc2ccccc2)C(=O)N1Cc1ccccc1` (stereo not given), the TGI is more than 100 µM.
Same read-out and setting: for `C[C@]12CC[C@@H]3c4ccc(O)cc4CC[C@H]3[C@@H]1C/C(=C\c1ccncc1)C2=O` the value was 54.8 µM.
In turn, `C=CCN1C(=O)/C(=C/c2ccccc2)N=C1SC1OC(COC(=O)c2ccccc2)C(OC(=O)c2ccccc2)C1OC(=O)c1ccccc1` (stereo not given) registered a TGI of more than 100 µM.
Still for that read-out and setting: the figure for `C#CCCCCC#Cc1ccccc1C(=O)OC` is more than 100 µM; for `C/C(CCOC1CCCCO1)=C(\C)[Si](C)(C)C` (stereo not given) it is more than 100 µM.
The same measure, in the same setting: for `COCCOCOc1ccc(OCc2ccccc2)cc1` the value was more than 100 µM; for `C=C(C(=O)C(=O)Oc1ccc(Cl)cc1)C(=O)c1ccc(C)cc1`, more than 100 µM.

A further test relates to HCC-2998 colon. The experiment in a line: NCI tumour cell line growth inhibition, 48 h.
Regarding `COC(=O)C1C(C(=O)OC)N(Cc2ccccc2)C(=O)N1Cc1ccccc1` (stereo not given), the TGI was more than 100 µM.
On the same count and under the same terms, the figure for `CCOC(=O)c1csc(NC(=O)CCN(CC)CC)n1` is more than 100 µM; for `C[C@]12CC[C@@H]3c4ccc(O)cc4CC[C@H]3[C@@H]1C/C(=C\c1ccncc1)C2=O` it is more than 100 µM; for `C=CCN1C(=O)/C(=C/c2ccccc2)N=C1SC1OC(COC(=O)c2ccccc2)C(OC(=O)c2ccccc2)C1OC(=O)c1ccccc1` (stereo not given) it is more than 100 µM.
Consider `C#CCCCCC#Cc1ccccc1C(=O)OC`, for which the TGI was more than 100 µM.
On the same count and under the same terms, the figure for `C/C(CCOC1CCCCO1)=C(\C)[Si](C)(C)C` (stereo not given) is more than 100 µM; for `COCCOCOc1ccc(OCc2ccccc2)cc1` it is more than 100 µM.
Same read-out and setting: the figure for `C=C(C(=O)C(=O)Oc1ccc(Cl)cc1)C(=O)c1ccc(C)cc1` is 76 µM.

The next test concerns UACC-257 melanoma. Briefly: NCI tumour cell line growth inhibition, 48 h.
`COC(=O)C1C(C(=O)OC)N(Cc2ccccc2)C(=O)N1Cc1ccccc1` (stereo not given) came in with a TGI of more than 100 µM.
The same measure, in the same setting: the figure for `CCOC(=O)c1csc(NC(=O)CCN(CC)CC)n1` is more than 100 µM.
Same read-out and setting: for `CCN1c2ccccc2-n2c(C)nnc2-c2c1n[nH]c2-c1ccccc1` the value was more than 100 µM; for `C[C@]12CC[C@@H]3c4ccc(O)cc4CC[C@H]3[C@@H]1C/C(=C\c1ccncc1)C2=O`, more than 100 µM.
Same read-out and setting: the figure for `C=CCN1C(=O)/C(=C/c2ccccc2)N=C1SC1OC(COC(=O)c2ccccc2)C(OC(=O)c2ccccc2)C1OC(=O)c1ccccc1` (stereo not given) is more than 100 µM.
Compound `C#CCCCCC#Cc1ccccc1C(=O)OC` yielded a TGI of more than 100 µM.
Compound `C/C(CCOC1CCCCO1)=C(\C)[Si](C)(C)C` (stereo not given) registered a TGI of more than 100 µM.
The same measure, in the same setting: the figure for `COCCOCOc1ccc(OCc2ccccc2)cc1` is more than 100 µM; for `C=C(C(=O)C(=O)Oc1ccc(Cl)cc1)C(=O)c1ccc(C)cc1` it is more than 100 µM.

Another test relates to SF-268 CNS. The experiment in a line: NCI tumour cell line growth inhibition, 48 h.
Compound `COC(=O)C1C(C(=O)OC)N(Cc2ccccc2)C(=O)N1Cc1ccccc1` (stereo not given) showed a TGI of more than 100 µM.
On to `CCN1c2ccccc2-n2c(C)nnc2-c2c1n[nH]c2-c1ccccc1`, for which the TGI is more than 100 µM.
With `C[C@]12CC[C@@H]3c4ccc(O)cc4CC[C@H]3[C@@H]1C/C(=C\c1ccncc1)C2=O`, the TGI was more than 100 µM.
The compound `C#CCCCCC#Cc1ccccc1C(=O)OC` came in with a TGI of more than 100 µM.
The same measure, in the same setting: for `C/C(CCOC1CCCCO1)=C(\C)[Si](C)(C)C` (stereo not given) the value was more than 100 µM; for `COCCOCOc1ccc(OCc2ccccc2)cc1`, more than 100 µM.
Still for that read-out and setting: the figure for `C=C(C(=O)C(=O)Oc1ccc(Cl)cc1)C(=O)c1ccc(C)cc1` is more than 100 µM.

Another test concerns RPMI-8226 leukemia. The experiment in a line: NCI tumour cell line growth inhibition, 48 h.
`COC(=O)C1C(C(=O)OC)N(Cc2ccccc2)C(=O)N1Cc1ccccc1` (stereo not given): the TGI is more than 100 µM.
The compound `CCOC(=O)c1csc(NC(=O)CCN(CC)CC)n1` had a TGI of more than 100 µM.
Take `CCN1c2ccccc2-n2c(C)nnc2-c2c1n[nH]c2-c1ccccc1`: the TGI turned out to be 82.3 µM.
Compound `C[C@]12CC[C@@H]3c4ccc(O)cc4CC[C@H]3[C@@H]1C/C(=C\c1ccncc1)C2=O` displayed a TGI of more than 100 µM.
Same read-out and setting: the figure for `C=CCN1C(=O)/C(=C/c2ccccc2)N=C1SC1OC(COC(=O)c2ccccc2)C(OC(=O)c2ccccc2)C1OC(=O)c1ccccc1` (stereo not given) is 87.9 µM; for `C#CCCCCC#Cc1ccccc1C(=O)OC` it is 41.5 µM.
Same read-out and setting: the figure for `C/C(CCOC1CCCCO1)=C(\C)[Si](C)(C)C` (stereo not given) is more than 100 µM; for `COCCOCOc1ccc(OCc2ccccc2)cc1` it is more than 100 µM.
As to `C=C(C(=O)C(=O)Oc1ccc(Cl)cc1)C(=O)c1ccc(C)cc1`, the TGI was more than 100 µM.

A further test relates to TK-10 renal. Briefly: NCI tumour cell line growth inhibition, 48 h.
As to `COC(=O)C1C(C(=O)OC)N(Cc2ccccc2)C(=O)N1Cc1ccccc1` (stereo not given), the TGI was more than 100 µM.
On the same count and under the same terms, for `CCOC(=O)c1csc(NC(=O)CCN(CC)CC)n1` the value was 62.8 µM; for `CCN1c2ccccc2-n2c(C)nnc2-c2c1n[nH]c2-c1ccccc1`, more than 100 µM.
Compound `C[C@]12CC[C@@H]3c4ccc(O)cc4CC[C@H]3[C@@H]1C/C(=C\c1ccncc1)C2=O` displayed a TGI of more than 100 µM.
Still for that read-out and setting: the figure for `C=CCN1C(=O)/C(=C/c2ccccc2)N=C1SC1OC(COC(=O)c2ccccc2)C(OC(=O)c2ccccc2)C1OC(=O)c1ccccc1` (stereo not given) is more than 100 µM.
Still for that read-out and setting: the figure for `C#CCCCCC#Cc1ccccc1C(=O)OC` is more than 100 µM; for `C/C(CCOC1CCCCO1)=C(\C)[Si](C)(C)C` (stereo not given) it is more than 100 µM.
The same measure, in the same setting: the figure for `C=C(C(=O)C(=O)Oc1ccc(Cl)cc1)C(=O)c1ccc(C)cc1` is more than 100 µM.

The next test has as its system U251 CNS. The experiment in a line: NCI tumour cell line growth inhibition, 48 h.
For `COC(=O)C1C(C(=O)OC)N(Cc2ccccc2)C(=O)N1Cc1ccccc1` (stereo not given), the TGI was more than 100 µM.
Same read-out and setting: for `CCOC(=O)c1csc(NC(=O)CCN(CC)CC)n1` the value was more than 100 µM.
